Test results: patent US7205295B2, “Benzoxazin-3-ones and derivatives thereof as therapeutic agents” (Warner-Lambert Company LLC, priority 2002, dated 2007)

Target: T1, PI3Kγ (p101/p110γ protein) (Homo sapiens, UniProt P48736)
T1 construct: HA; made in house; host or cells: Spodoptera frugiperda (Sf9) cells, baculovirus co-infection
Assay: PI3Kγ In Vitro Kinase Assay
Format: biochemical
Details: purified recombinant p101/p110γ with G protein β1/γ2 subunits; 20 μM ATP, 25 μM PIP2; 20 minutes at room temperature
Method: Spodtera frugiperda cells, grown in ESF921 media, were coinfected with baculovirus expressing a glu-tagged p101 and baculovirus expressing an HA-tagged p110γ, at a 3:1 ratio of p101 baculovirus to p110γ baculovirus. Sf9 cells were grown to 1×10^7 total cells/mL in 10L bioreactors and harvested 48-72 hours post infection. Samples of infected cells were then tested for expression of p101/p110γ PI3 kinase by immunoprecipitation and Western Blot analysis methods (see below). […] NaCl was added to 150 mM, and sodium cholate was added to 1% and mixed for another 45 minutes. The lysates were clarified by centrifugation for 25 minutes at 14,000 rpm. The lysates were then loaded over anti-glu-linked Protein-G Sepaharose beads (Covance Research Products, Richmond, Calif.) using 20 mL resin/50 g cell paste. […] PI3Kγ was eluted with 6 column volumes of wash buffer that contain 100 μg/mL of a peptide that competes for binding of the glu tag. […] The fractions were stored at -80° C. until further use. Spodtera frugiperda cells were coinfected with baculovirus expressing a glu-tagged G protein β1 and baculovirus expressing a G protein […] at a 1:1 ratio of glu-tagged G protein β1 baculovirus to G protein β2 baculovirus. Sf9 cells are grown in 10 L bioreactors and harvested 48-72 hours post infection. Samples of infected cells were tested for G protein β1/β2 expression by Western Blot analysis, as described below. Cell lysates were homogenized and loaded onto a column of glu-tagged beads as in Biological Example 1 and competed off the column with a glu peptide as described in Biological Example 1. The inhibitory properties of the compounds in Table 1 were assayed in an in vitro PI3K assay. In a 96-well polypropylene plate, each well was spotted with 2 μL of […] the desired final concentration of compound in DMSO. Purified recombinant p101/p110γ protein (0.03 μg; 2.7 nM) and G protein β1/γ2 subunits (0.09 μg; 57.7 nM) for each reaction was combined in the assay buffer (30 mM HEPES, 100 mM NaCl, 1 mM EGTA, and 1 mM DTT). ATP and [γ-^32P-ATP] (0.09 μCi) were added to this mixture so that the final ATP concentration in the reaction was 20 μM. Lipid micelles were formed by sonicating phosphatidylinositol-4,5-diphosphate (PIP2), phosphatidylethanolamine (PE), and Na-cholate in the assay buffer for 10 minutes, adding MgCL2 and incubating on ice for 20 minutes, for final concentrations of 25 μM PIP2, 300 [M PE, 0.02% Na-cholate, and 10 mM MgCl2 in the reaction. The reactions were started by adding equal volumes lipid and enzyme mixture in a total volume of 50 μL, allowed to run for 20 minutes at room temperature, and stopped with 100 μL 75 mM H3PO4. The lipid product was transferred to a glass fiber filter plate and washed with 75 mM H3PO4 several times. The presence of radioactive lipid product (PIP3) was measured by adding Wallac Optiphase mix to each well and counting in a Wallac 1450 Trilux plate reader (PerkinElmer Life Sciences Inc., Boston, Mass. 02118).

T1 sequence (P48736 whole entry, species assumed): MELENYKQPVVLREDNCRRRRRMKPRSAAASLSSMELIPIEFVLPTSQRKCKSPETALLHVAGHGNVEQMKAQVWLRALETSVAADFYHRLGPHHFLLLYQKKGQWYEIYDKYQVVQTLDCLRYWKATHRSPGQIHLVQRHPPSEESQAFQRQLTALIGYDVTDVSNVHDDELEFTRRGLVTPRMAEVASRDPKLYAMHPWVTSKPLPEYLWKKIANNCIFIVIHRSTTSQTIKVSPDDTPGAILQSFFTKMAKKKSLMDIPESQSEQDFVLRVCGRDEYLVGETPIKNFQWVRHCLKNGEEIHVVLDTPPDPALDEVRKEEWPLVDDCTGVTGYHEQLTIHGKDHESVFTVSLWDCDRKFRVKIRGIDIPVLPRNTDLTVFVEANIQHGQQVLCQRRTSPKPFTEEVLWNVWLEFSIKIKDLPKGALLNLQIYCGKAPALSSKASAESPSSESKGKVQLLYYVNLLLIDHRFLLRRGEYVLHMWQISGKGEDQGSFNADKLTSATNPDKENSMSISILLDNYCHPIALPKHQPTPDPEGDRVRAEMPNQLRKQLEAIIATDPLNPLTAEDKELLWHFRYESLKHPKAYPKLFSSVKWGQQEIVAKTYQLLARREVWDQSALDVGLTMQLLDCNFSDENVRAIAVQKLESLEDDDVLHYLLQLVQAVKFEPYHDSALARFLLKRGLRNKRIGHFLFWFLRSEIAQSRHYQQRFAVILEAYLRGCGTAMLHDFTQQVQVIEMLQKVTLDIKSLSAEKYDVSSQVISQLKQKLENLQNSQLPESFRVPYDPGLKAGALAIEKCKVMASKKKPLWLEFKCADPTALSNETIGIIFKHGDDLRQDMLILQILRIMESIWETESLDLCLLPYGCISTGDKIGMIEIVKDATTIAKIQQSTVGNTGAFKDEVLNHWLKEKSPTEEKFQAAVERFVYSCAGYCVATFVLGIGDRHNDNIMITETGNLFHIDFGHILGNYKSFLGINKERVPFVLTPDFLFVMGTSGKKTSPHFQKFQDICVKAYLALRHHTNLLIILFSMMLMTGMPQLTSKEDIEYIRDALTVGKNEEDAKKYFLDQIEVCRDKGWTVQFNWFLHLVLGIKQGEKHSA
T1 sequence (Q8WYR1 whole entry partner, species assumed): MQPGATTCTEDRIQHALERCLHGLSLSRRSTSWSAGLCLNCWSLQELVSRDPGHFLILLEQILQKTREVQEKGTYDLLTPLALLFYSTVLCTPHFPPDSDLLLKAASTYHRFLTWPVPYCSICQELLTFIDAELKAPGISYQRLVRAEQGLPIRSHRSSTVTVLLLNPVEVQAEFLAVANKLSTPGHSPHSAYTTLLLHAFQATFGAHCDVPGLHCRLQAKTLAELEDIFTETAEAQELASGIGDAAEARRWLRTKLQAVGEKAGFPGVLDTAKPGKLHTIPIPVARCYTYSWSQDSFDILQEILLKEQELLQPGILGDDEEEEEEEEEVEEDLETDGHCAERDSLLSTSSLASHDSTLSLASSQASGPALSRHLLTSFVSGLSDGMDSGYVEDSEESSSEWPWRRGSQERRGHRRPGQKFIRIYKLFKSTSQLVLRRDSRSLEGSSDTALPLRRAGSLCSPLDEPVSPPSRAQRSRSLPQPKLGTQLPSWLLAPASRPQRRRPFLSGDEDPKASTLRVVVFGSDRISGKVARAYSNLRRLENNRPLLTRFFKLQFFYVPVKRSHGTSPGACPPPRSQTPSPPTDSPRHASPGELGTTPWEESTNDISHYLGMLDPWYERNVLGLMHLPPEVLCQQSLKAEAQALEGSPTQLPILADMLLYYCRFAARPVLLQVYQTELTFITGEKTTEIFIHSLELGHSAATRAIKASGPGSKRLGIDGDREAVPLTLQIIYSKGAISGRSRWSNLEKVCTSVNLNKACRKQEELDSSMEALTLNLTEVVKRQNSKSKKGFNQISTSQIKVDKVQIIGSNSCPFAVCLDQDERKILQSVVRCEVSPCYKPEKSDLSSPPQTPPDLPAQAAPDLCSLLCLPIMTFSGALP

SMILES	IC50 [nM]
O=C1NC(=S)SC1=Cc1cc(Cl)c2c(c1)N(CCc1ccc(Cl)c(Cl)c1)C(=O)CO2 [Example 110, 8-Chloro-4-[2-(3,4-dichloro-phenyl)-ethyl]-6-(4-oxo-2-thioxo-thiazolidin-5-ylidenmethyl)-4H-benzo[1,4]oxazin-3-one]	55
O=C1COc2ccc(C=C3SC(=S)NC3=O)cc2N1 [Example 1, 6-(4-Oxo-2-thioxo-thiazolidin-5-ylidenemethyl)-4H-1,4-benzoxazin-3-one]	78
O=C1NC(=S)SC1=Cc1ccc2c(c1)N(Cc1cc(-c3ccccc3)cc(-c3ccccc3)c1)C(=O)CO2 [Example 43, 6-(4-Oxo-2-thioxo-thiazolidin-5-ylidenemethyl)-4-1,1′,3′,1″-terphenyl-5′-ylmethyl-4H-1,4-benzoxazin-3-one]	1440
O=C1NC(=S)SC1=Cc1ccc2c(c1)N(Cc1ccc3nccnc3c1)C(=O)CO2 [Example 314, 6-(4-Oxo-2-thioxo-thiazolidin-5-ylidenemethyl)-4-quinoxalin-6-ylmethyl-4H-benzo[1,4]oxazin-3-one]	36
O=C1COc2c(Cl)cc(C=C3SC(=S)NC3=O)cc2N1 [Example 49, 8-Chloro-6-(4-oxo-2-thioxo-thiazolidin-5-ylidenemethyl)-4H-1,4-benzoxazin-3-one]	61
CC(C)(C)OC(=O)N1CCN(Cc2ccc(CN3C(=O)COc4ccc(C=C5SC(=O)NC5=O)cc43)cc2)CC1 [Example 75, 4-{4-[6-(2,4-dioxo-thiazolidin-5-ylidenemethyl)-3-oxo-2,3-dihydro-1,4-benzoxazin-4-ylmethyl]-benzyl}-piperazine-1-carboxylic acid tert-butyl ester]	155
C[C@@H]1Oc2ccc(C=C3SC(=S)NC3=O)cc2NC1=O [Example 13, (S)-2-Methyl-6-(4-oxo-2-thioxo-thiazolidin-5-ylidenemethyl)-4H-1,4-benzoxazin-3-one]	745
O=C1NC(=S)SC1=Cc1ccc2c(c1)N(CC(=O)N1CCNCC1)C(=O)CO2 [Example 215, 4-(2-Oxo-2-piperazin-1-yl-ethyl)-6-(4-oxo-2-thioxo-thiazolidin-5-ylidenemethyl)-4H-1,4-benzoxazin-3-one]	1080
Cc1cc(CN2CCOCC2)cc(CN2C(=O)COc3ccc(C=C4SC(=S)NC4=O)cc32)c1 [Example 42, 4-(3-Methyl-5-morpholin-4-ylmethyl-benzyl)-6-(4-oxo-2-thioxo-thiazolidin-5-ylidenemethyl)-4H-1,4-benzoxazin-3-one]	41
CN1CC(=O)Nc2cc(C=C3SC(=S)NC3=O)ccc21 [Example 190, 4-Methyl-7-(4-oxo-2-thioxo-thiazolidin-5-ylidenemethyl)-3,4-dihydro-1H-quinoxalin-2-one]	240
O=C1NC(=S)SC1=Cc1ccc2c(c1)N(CCCc1cccc(Cl)c1Cl)C(=O)CO2 [Example 127, 4-[3-(2,3-Dichloro-phenyl)-propyl]-6-(4-oxo-2-thioxo-thiazolidin-5-ylidenemethyl)-4H-benzo[1,4]oxazin-3-one]	43
CC(C)(C)c1cc(CN2C(=O)COc3c(F)cc(C=C4SC(=S)NC4=O)cc32)cc(C(C)(C)C)c1 [Example 54, 4-(3,5-Di-tert-butyl-benzyl)-8-fluoro-6-(4-oxo-2-thioxo-thiazolidin-5-ylidenemethyl)-4H-1,4-benzoxazin-3-one]	40
O=C1NC(=S)SC1=Cc1ccc2c(c1)N(Cc1ccsc1)C(=O)CO2 [Example 146, 6-(4-Oxo-2-thioxo-thiazolidin-5-ylidenemethyl)-4-thiophen-3-ylmethyl-4H-benzo[1,4]oxazin-3-one]	30
Cn1nc(C(C)(C)C)cc1CN1C(=O)COc2ccc(C=C3SC(=S)NC3=O)cc21 [Example 128, 4-(5-tert-Butyl-2-methyl-2H-pyrazol-3-ylmethyl)-6-(4-oxo-2-thioxo-thiazolidin-5-ylidenemethyl)-4H-benzo[1,4]oxazin-3-one]	180

Now those with a lower IC50, led by results:

IC50 [nM]	SMILES
16	CC(C)(C)c1cc(I)cc(CN2C(=O)COc3ccc(C=C4SC(=S)NC4=O)cc32)c1 [Example 52, 4-(3-tert-Butyl-5-iodo-benzyl)-6-(4-oxo-2-thioxo-thiazolidin-5-ylidenemethyl)-4H-1,4-benzoxazin-3-one]
7	O=C1NC(=S)SC1=Cc1ccc2c(c1)N(Cc1ccc(Cl)cc1)C(=O)CO2 [Example 179, 4-(4-Chloro-benzyl)-6-(4-oxo-2-thioxo-thiazolidin-5-ylidenemethyl)-4H-1,4-benzoxazin-3-one]
3	O=C1NC(=S)SC1=Cc1ccc2c(c1)N(Cc1ccc(Cl)s1)C(=O)CO2 [Example 322, 4-(5-Chloro-thiophen-2-ylmethyl)-6-(4-oxo-2-thioxo-thiazolidin-5-ylidenemethyl)-4H-benzo[1,4]oxazin-3-one]
7	O=C1NC(=S)SC1=Cc1ccc2c(c1)N(Cc1cccs1)C(=O)CO2 [Example 333, 6-(4-Oxo-2-thioxo-thiazolidin-5-ylidenemethyl)-4-thiophen-2-ylmethyl-4H-1,4-benzoxazin-3-one]
17	Cc1cc(CN2C(=O)COc3ccc(C=C4SC(=S)NC4=O)cc32)cc(C(C)(C)C)c1 [Example 211, 4-(3-tert-Butyl-5-methyl-benzyl)-6-(4-oxo-2-thioxo-thiazolidin-5-ylidenemethyl)-4H-1,4-benzoxazin-3-one]
17	O=C1NC(=S)SC1=Cc1cc(Cl)c2c(c1)N(Cc1ccc(CN3CCOCC3)cc1)C(=O)CO2 [Example 80, 8-Chloro-4-(4-morpholin-4-ylmethyl-benzyl)-6-(4-oxo-2-thioxo-thiazolidin-5-ylidenemethyl)-4H-1,4-benzoxazin-3-one]
6	CN1CCN(Cc2cc(CN3C(=O)COc4ccc(C=C5SC(=S)NC5=O)cc43)cc(C(C)(C)C)c2)CC1 [Example 222, 4-[3-tert-Butyl-5-(4-methyl-piperazin-1-ylmethyl)-benzyl]-6-(4-oxo-2-thioxo-thiazolidin-5-ylidenemethyl)-4H-1,4-benzoxazin-3-one]
21	CC(C)S(=O)(=O)c1cccc(CN2C(=O)COc3ccc(C=C4SC(=O)NC4=O)cc32)c1 [Example 252, 5-{3-Oxo-4-[3-(propane-2-sulfonyl)-benzyl]-3,4-dihydro-2H-1,4-benzoxazin-6-ylmethylene}-thiazolidine-2,4-dione]
2	O=C1NC(=S)OC1=Cc1ccc2c(c1)N(CC1CCCCC1)C(=O)CO2 [Example 261, 4-Cyclohexylmethyl-6-(4-oxo-2-thioxo-oxazolidin-5-ylidenemethyl)-4H-1,4-benzoxazin-3-one]
3	O=C1NC(=S)SC1=Cc1ccc2c(c1)N(Cc1ccc(F)c(F)c1)C(=O)CO2 [Example 312, 4-(3,4-Difluoro-benzyl)-6-(4-oxo-2-thioxo-thiazolidin-5-ylidenemethyl)-4H-1,4-benzoxazin-3-one]
19	CN(C)S(=O)(=O)c1cccc(CN2C(=O)COc3ccc(C=C4SC(=S)NC4=O)cc32)c1 [Example 262, N,N-Dimethyl-3-[3-oxo-6-(4-oxo-2-thioxo-thiazolidin-5-ylidenemethyl)-2,3-dihydro-1,4-benzoxazin-4-ylmethyl]-benzenesulfonamide]
8	O=C1NC(=O)C(=Cc2ccc3c(c2)N(Cc2ccc(OCc4ccccc4)cc2)C(=O)CO3)S1 [Example 249, 5-[4-(4-Benzyloxy-benzyl)-3-oxo-3,4-dihydro-2H-1,4-benzoxazin-6-ylmethylene]-thiazolidine-2,4-dione]
5	Cc1cc(C)cc(CN2C(=O)COc3ccc(C=C4SC(=S)NC4=O)cc32)c1 [Example 150, 4-(3,5-Dimethyl-benzyl)-6-(4-oxo-2-thioxo-thiazolidin-5-ylidenemethyl)-4H-benzo[1,4]oxazin-3-one]
21	N#Cc1cccc(CN2C(=O)COc3ccc(C=C4SC(=S)NC4=O)cc32)c1 [Example 149, 3-[3-Oxo-6-(4-oxo-2-thioxo-thiazolidin-5-ylidenemethyl)-2,3-dihydro-benzo[1,4]oxazin-4-ylmethyl]-benzonitrile]
